Test in all cases: DTP human tumour cell line panel, 48 h
For experiment [1], the system named is CCRF-CEM leukemia.
The subject of experiment [2] is SK-MEL-2 melanoma.
Experiment [3] deals with KM12 colon.
Experiment [4] has as its system MDA-MB-231 breast.
For experiment [5], the system named is 786-0 renal.
The test system of experiment [6] is SR leukemia.
Experiment [7] has as its system MOLT-4 leukemia.
Experiment [8] deals with OVCAR-3 ovarian.
Experiment [9] has as its system PC-3 prostate.
In experiment [10] the test system is SF-539 CNS.

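Step 1: Grow cells in 96-well plates. Step 2: Expose to compound for 48 hours at 5 concentrations. Step 3: Interpolate endpoints linearly; if unreached, use highest concentration. GI50: concentration for 50% inhibition of growth. Definition used: TGI = concentration required for complete inhibition of growth.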

Consider `C#CCNCCN1C(=O)c2ccc3c4c(ccc(c24)C1=O)C(=O)N(CCNCC#C)C3=O`, for which the GI50 was 5.19 µM in experiment [1]; 6.57 µM in [2]; 3.35 µM in experiment [3]; 5.24 µM in experiment [4]; 6.1 µM in experiment [5]; 4.53 µM in [6]. Further, the GI50 in experiment [7] was 3.54 µM; in experiment [8] it was 1.52 µM; in experiment [9], 7.09 µM; in experiment [10], 4.76 µM. In addition, the TGI in experiment [1] was found to be 25 µM; in experiment [2], 14.1 µM; in [3] it was 11.4 µM; in [4], 13.6 µM; in [5], 26.5 µM; in [6], 29.8 µM. Moreover, the TGI in [7] amounted to 16.7 µM; in experiment [8], 4.22 µM; in experiment [9], 21.2 µM; in [10], 11.2 µM.

`Cc1cn2c(/C=C3/C(=O)Nc4ccc(O)cc43)c(C)nc2s1`: the GI50 in experiment [1] was 1.25 µM; in experiment [2] it was > 53 µM; in experiment [3], 1.8 µM; in [4], 2.82 µM; in experiment [5], 4.95 µM; in experiment [6], 0.316 µM. Further, the GI50 is 4.46 µM in experiment [7], 0.486 µM in [8], 2.11 µM in experiment [9] and 2.42 µM in experiment [10]. For the same compound, the concentration for total growth inhibition (TGI) was > 100 µM in [2]; 24.3 µM in experiment [3]; > 62.4 µM in [4]; > 100 µM in [5]; 13.6 µM in experiment [6]; 48.6 µM in experiment [7]. In addition, the TGI was > 22.6 µM in experiment [8], 37.2 µM in experiment [9] and 9.16 µM in [10].

Take `Cc1nn(C)c(COc2ccc(N3CCN(S(=O)(=O)N(C)C)CC3)cc2)c1-c1cccc2c(CCCOc3cccc4ccccc34)c(C(=O)O)n(CCN3CCOCC3)c12`: the GI50 in experiment [1] is 4.19 µM; in [2] it was 1.95 µM; in experiment [3] it was 3.5 µM; in experiment [4], 2.26 µM; in experiment [5], 2.52 µM; in experiment [6], 3.13 µM. The GI50 is 3.52 µM in [7], 2.72 µM in [8], 3.27 µM in experiment [9] and 2.44 µM in experiment [10]. Moreover, the TGI was > 100 µM in experiment [1]; 4.35 µM in [2]; 13 µM in [3]; 5.9 µM in [4]; 6.97 µM in experiment [5]; 11 µM in [6]. Moreover, the TGI in experiment [7] stood at 16.5 µM; in [8] it was 8.57 µM; in [9] it was 10.7 µM; in experiment [10] it was 6.17 µM.

Usually GI50 stands for the concentration at which growth is held to half of that of the control. Usually TGI stands for the concentration at which net growth stops. Low values mean greater sensitivity of the cells, high ones lower sensitivity of the cells.

The values above are taken from PubChem BioAssay (NCI).
